Entries after “also recorded” stand apart in the source; their conditions may differ.
Columns and labels:
DM subject [1] = assay: Multidimensional Fatigue Inventory, self-reported; format: in vivo, human; conditions: additional DM subject; ON treatment: flumazenil 12-18 mg sublingual plus 12 mg topical daily, or armodafinil 250 mg QAM
DM subject [2] = assay: Fatigue severity scale, self-reported; format: in vivo, human; conditions: additional DM subject; ON treatment: flumazenil 12-18 mg sublingual plus 12 mg topical daily, or armodafinil 250 mg QAM
DM subject [3] = assay: Sleep inertia questionnaire, self-reported; format: in vivo, human; conditions: additional DM subject; ON treatment: flumazenil 12-18 mg sublingual plus 12 mg topical daily, or armodafinil 250 mg QAM
DM subject [4] = assay: Functional Outcomes of sleep, self-reported; format: in vivo, human; conditions: additional DM subject; ON treatment: flumazenil 12-18 mg sublingual plus 12 mg topical daily, or armodafinil 250 mg QAM
DM subject [5] = assay: Hypersomnia Severity Index, self-reported; format: in vivo, human; conditions: additional DM subject; ON treatment: flumazenil 12-18 mg sublingual plus 12 mg topical daily, or armodafinil 250 mg QAM
DM subject [6] = assay: Owl Lark questionnaire, self-reported; format: in vivo, human; conditions: additional DM subject; ON treatment: flumazenil 12-18 mg sublingual plus 12 mg topical daily, or armodafinil 250 mg QAM
DM subject [7] = assay: Beck Depression Inventory, self-reported; format: in vivo, human; conditions: additional DM subject; ON treatment: flumazenil 12-18 mg sublingual plus 12 mg topical daily, or armodafinil 250 mg QAM
DM subject [8] = assay: Epworth Sleepiness Scale, self-reported
[9] = tested on: MBNL2 knockout and DMSXL transgenic mouse models; conditions: MBNL2 knockout and DMSXL transgenic mice; Charizanis et al. 2012; cited from earlier work
DM subject [10] = assay: Clinical treatment of hypersomnia and cognitive deficits in DM subjects; format: in vivo, human
[11] = target: GABRG2S-containing receptors in HEK293T cells (Homo sapiens, UniProt P14867+P18507); assay: Patch clamp electrophysiology with DM subject CSF in HEK293T cells; conditions: CSF from DM subject 2, with GABA; clarithromycin added
Sequence of GABRG2S-containing receptors in HEK293T cells (P18507 40-467 isoform P18507-1 limits assumed): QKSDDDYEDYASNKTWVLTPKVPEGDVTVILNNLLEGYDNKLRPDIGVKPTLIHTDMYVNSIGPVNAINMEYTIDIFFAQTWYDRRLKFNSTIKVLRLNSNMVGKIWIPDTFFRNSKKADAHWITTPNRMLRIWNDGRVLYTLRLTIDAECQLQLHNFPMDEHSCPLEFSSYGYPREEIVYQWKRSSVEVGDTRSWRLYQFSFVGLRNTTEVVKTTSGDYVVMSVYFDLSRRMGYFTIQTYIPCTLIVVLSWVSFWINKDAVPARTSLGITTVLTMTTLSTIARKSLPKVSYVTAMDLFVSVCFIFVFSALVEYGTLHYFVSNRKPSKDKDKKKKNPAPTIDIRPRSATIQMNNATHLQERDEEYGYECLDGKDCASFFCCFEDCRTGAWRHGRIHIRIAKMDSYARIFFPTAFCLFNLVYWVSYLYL
Sequence of GABRG2S-containing receptors in HEK293T cells (P14867 28-456): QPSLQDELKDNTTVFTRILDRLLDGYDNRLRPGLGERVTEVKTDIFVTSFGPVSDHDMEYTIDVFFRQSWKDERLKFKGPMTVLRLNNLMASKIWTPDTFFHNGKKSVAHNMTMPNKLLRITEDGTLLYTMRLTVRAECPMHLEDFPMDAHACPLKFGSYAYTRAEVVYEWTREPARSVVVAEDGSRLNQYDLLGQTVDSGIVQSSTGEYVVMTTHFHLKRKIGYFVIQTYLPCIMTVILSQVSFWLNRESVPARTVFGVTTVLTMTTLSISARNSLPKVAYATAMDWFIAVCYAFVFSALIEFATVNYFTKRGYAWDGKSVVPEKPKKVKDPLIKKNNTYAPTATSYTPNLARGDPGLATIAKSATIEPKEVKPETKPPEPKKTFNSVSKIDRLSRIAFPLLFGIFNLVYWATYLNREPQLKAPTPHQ
Sequence of GABRG2S-containing receptors in HEK293T cells (P47870 25-512 partner limits assumed): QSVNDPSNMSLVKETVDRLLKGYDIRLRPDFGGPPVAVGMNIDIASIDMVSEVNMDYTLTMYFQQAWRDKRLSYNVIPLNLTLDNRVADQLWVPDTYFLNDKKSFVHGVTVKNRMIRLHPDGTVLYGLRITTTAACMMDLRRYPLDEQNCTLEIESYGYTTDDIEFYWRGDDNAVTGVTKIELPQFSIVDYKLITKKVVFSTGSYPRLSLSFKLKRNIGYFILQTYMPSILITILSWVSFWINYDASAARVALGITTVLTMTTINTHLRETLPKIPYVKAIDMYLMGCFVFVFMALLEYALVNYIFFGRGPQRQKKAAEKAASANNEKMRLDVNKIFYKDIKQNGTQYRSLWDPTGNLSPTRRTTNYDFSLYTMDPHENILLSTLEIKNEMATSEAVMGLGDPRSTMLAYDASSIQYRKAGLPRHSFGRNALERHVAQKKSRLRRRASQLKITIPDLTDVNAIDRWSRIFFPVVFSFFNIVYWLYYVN

gamma 2L deficient mice = conditions: Quinlan et al. 2000; cited from earlier work
[12] = tested on: benzodiazepine binding site of GABAA receptors; conditions: previous work, Rye et al. 2012; cited from earlier work
[13] = tested on: idiopathic hypersomnia (IH) subjects; conditions: previous work, Rye 2012; Trotti 2016; cited from earlier work
DM subject 1 [14] = assay: Stanford sleepiness scale; conditions: intravenous flumazenil, 2 different doses incl. 2.0 mg, average of 3 assessments over one hour
DM subject 1 [15] = assay: Ten-minute psychomotor vigilance task
[16] = additional DM subject, ON treatment: flumazenil 12-18 mg sublingual plus 12 mg topical daily, or armodafinil 250 mg QAM

For `NC(=O)C[S@@+]([O-])C(c1ccccc1)c1ccccc1` [Armodafmil, armodafinil], the “General Fatigue (5-20)” value (DM subject [1]) was 15, the “Mental Fatigue (5-20)” value (DM subject [1]) was 11 and the “Physical Fatigue (5-20)” value (DM subject [1]) was 6. The “Reduced Activity (5-20)” value (DM subject [1]) was 7, the “Reduced Motivation (5-20)” value (DM subject [1]) was 5 and the “Fatigue severity scale (7-63)” value (DM subject [2]) was 47. The Sleep inertia questionnaire (DM subject [3]) was 14.683, the “Functional Outcomes of sleep (5-20)” value (DM subject [4]) was 16.875 and the “Hypersomnia Severity Index (0-36)” value (DM subject [5]) was 25. For the same compound, the “Owl Lark” value (DM subject [6]) was 36, the “Beck Depression Inventory (0-39)” value (DM subject [7]) was 3 and the “Epworth Sleepiness Scale” value (DM subject [8]; [16]) was 8.
For `C1CCc2nnnn2CC1` [Pentylenetetrazole], the “spontaneous seizure and death in response to PTZ” value [9] is given as “increased frequency of spontaneous seizure and death”.
In the case of `CC[C@H]1OC(=O)[C@H](C)[C@@H](O[C@H]2C[C@@](C)(OC)[C@@H](O)[C@H](C)O2)[C@H](C)[C@@H](O[C@@H]2O[C@H](C)C[C@H](N(C)C)[C@H]2O)[C@](C)(OC)C[C@@H](C)C(=O)[C@H](C)[C@@H](O)[C@]1(C)O` [clarithromycin], the “Oral clarithromycin treatment outcome” value (DM subject [10]; DM subject 1) is reported as “discontinued use -”, the “Oral clarithromycin treatment outcome” value (DM subject [10]; DM subject 2) is reported as “clinical benefit; also recorded: efficacious” and the “effect on endozepine-like activity of CSF” value [11] is reported as “reversed; also recorded: normalized”.
In the case of `CCOC(=O)c1ncn2c1CN(C)C(=O)c1cc(F)ccc1-2` [flumazenil], the “action of midazolam in gamma 2L deficient mice” value (gamma 2L deficient mice) is given as “reversed”, the endozepine-like molecule binding [12] is given as “inhibits endozepine-like molecule binding” and the “clinical benefit in idiopathic hypersomnia” value [13] is given as “clinical benefit”. The “self reported sleepiness on the Stanford sleepiness scale” value (DM subject 1 [14]) was “reduced sleepiness”, the “time elapsed between visual stimulus and user input” value (DM subject 1 [15]; 2.0 mg intravenously administered flumazenil, versus before treatment) was “dramatic decrease in time elapsed” and the “lapses in attention (reaction times >500 ms)” value (DM subject 1 [15]; intravenous flumazenil, 2 different doses incl. 2.0 mg) was “marked reduction in lapses in attention; also recorded: decreased”. The “Epworth Sleepiness Scale” value (DM subject [8]; DM subject 4, ON flumazenil 12-18 mg sublingual plus 12 mg topical daily, 6 continuous weeks) was 5 and the “Epworth Sleepiness Scale” value (DM subject [8]; [16]) was 7.

— US11529358B2, “Treatment of conditions associated with myotonic dystrophy” (priority 2017, dated 2022)
